Experimental data taken from patent US20060009493A1, “Indolinone hydrazides as c-Met inhibitors” (Sugen, Inc., priority 2003, published 2006).

Biological target: T1, GST fusion protein containing the Met kinase domain (Homo sapiens, UniProt P08581)
T1 construct: Purified GST fusion protein containing the Met kinase domain, Sugen, Inc
Assay: MET Transphosphorylation Assay (ELISA, poly(Glu,Tyr) 4:1 substrate)
Assay type: biochemical
Conditions: met transphosphorylation of poly(glutamic acid:tyrosine 4:1) substrate; two values in a cell separated by '/'
In short: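 Poly(Glu-Tyr)-coated wells received the GST-Met kinase domain (10 ng/well) with compound in DMSO for 15 minutes. The reaction was started with ATP/MnCl2 in HEPES pH 7.5 buffer with vanadate, run 5 minutes, and stopped with EDTA. Phosphotyrosine was detected by anti-pTyr antibody, HRP secondary and ABTS/H2O2.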

T1 sequence (P08581 1078-1345 limits assumed): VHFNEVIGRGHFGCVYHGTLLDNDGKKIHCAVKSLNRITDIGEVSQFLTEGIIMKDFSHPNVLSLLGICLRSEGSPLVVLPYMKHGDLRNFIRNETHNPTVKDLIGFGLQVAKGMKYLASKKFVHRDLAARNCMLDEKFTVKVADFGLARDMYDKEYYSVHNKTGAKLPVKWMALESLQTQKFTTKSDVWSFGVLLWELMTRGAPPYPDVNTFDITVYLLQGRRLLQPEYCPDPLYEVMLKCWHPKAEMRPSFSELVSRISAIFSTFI

Molecule | IC50 [nM]
COc1ccc(CC(=O)N/N=C2\C(=O)Nc3c(Cl)ccc(Cl)c32)cc1C [II-70, (4-Methoxy-3-methyl-phenyl)-acetic acid [(3Z)-4,7-dichloro-2-oxo-1,2-dihydro-indol-3-ylidene]-hydrazide] | > 20000
O=C(Cc1cc[n+]([O-])cc1)N/N=C1\C(=O)Nc2ccccc21 [II-37, (1-Oxy-pyridin-4-yl)-acetic acid [(3Z)-2-oxo-1,2-dihydro-indol-3-ylidene]-hydrazide] | 10800
CC(C)C(C(=O)N/N=C1\C(=O)Nc2ccccc21)c1ccc(O)cc1 (stereo not shown) [II-68, 2-(4-Hydroxy-phenyl)-3-methyl-butyric acid [(3Z)-2-oxo-1,2-dihydro-indol-3-ylidene)-hydrazide] | 1450
O=C(Cc1ccc(F)cc1)N/N=C1\C(=O)Nc2ccccc21 [II-27, (4-Fluoro-phenyl)-acetic acid [(3Z)-2-oxo-1,2-dihydro-indol-3-ylidene]-hydrazide] | 2150
Cn1cc(CC(=O)N/N=C2\C(=O)Nc3ccc(C(=O)N4CCC[C@@H]4CN4CCCC4)c(Cl)c32)ccc1=O [Example I-36, (1-Methyl-6-oxo-1,6-dihydro-pyridin-3-yl)-acetic acid [(3Z)-4-chloro-2-oxo-5-[(2R)-2-pyrrolidin-1-ylmethyl-pyrrolidine-1-carbonyl]-1,2-dihydro-indol-3-ylidene]-hydrazide] | 4150
CSc1ccc(CC(=O)N/N=C2\C(=O)Nc3ccccc32)cc1 [Example I-19, (4-Methylsulfanyl-phenyl)-acetic acid [(3Z]-2-oxo-1,2-dihydro-indol-3-ylidene]-hydrazide] | > 20000
Cc1cn(CC(=O)N/N=C2\C(=O)Nc3ccccc32)c(=O)[nH]c1=O [II-73, (5-Methyl-2,4-dioxo-3,4-dihydro-2H-pyrimidin-1-yl)-acetic acid [(3Z)-2-oxo-1,2-dihydro-indol-3-ylidene]-hydrazide] | > 20000
Cc1ccc(C)c2c1NC(=O)/C2=N\NC(=O)Cc1ccc(O)c(C#N)c1 [II-112, (3-Cyano-4-hydroxy-phenyl)-acetic acid [(3Z)-4,7-dimethyl-2-oxo-1,2-dihydro-indol-3-ylidene]-hydrazide] | 2500
N#Cc1cc(CC(=O)N/N=C2\C(=O)Nc3c(Cl)ccc(Cl)c32)ccc1O [II-109, (3-Cyano-4-hydroxy-phenyl)-acetic acid [(3Z)4,7-dichloro-2-oxo-1,2-dihydro-indol-3-ylidene)-hydrazide] | 1620
COc1ccc(CC(=O)N/N=C2\C(=O)Nc3ccccc32)cc1OC [II-5, (3,4-Dimethoxy-phenyl)-acetic acid [(3Z)-2-oxo-1,2-dihydro-indol-3-ylidene]-hydrazide] | > 20000
CCN(CC)CCc1cc(C)c2c(c1C)/C(=N/NC(=O)C(C)c1ccc(F)cc1)C(=O)N2 (stereo not shown) [Example I-63, 2-(4-Fluoro-phenyl)-propionic acid [(3Z)-5-(2-diethylamino-ethyl)-4,7-dimethyl-2-oxo-1,2-dihydro-indol-3-ylidene]-hydrazide] | 1050
Cc1ccc(C)c2c1NC(=O)/C2=N\NC(=O)CCc1ccc(N)cc1 [II-93, 3-(4-Amino-phenyl)-propionic acid [(3Z)-4,7-dimethyl-2-oxo-1,2-dihydro-indol-3-ylidene]-hydrazide] | > 20000
O=C1Nc2ccccc2/C1=N/NC(=O)C1Cc2ccccc2C1 [Example I-59, Indan-2-carboxylic acid [(3Z)-2-oxo-1,2-dihydro-indol-3-ylidene)-hydrazide] | > 20000
(3-Chloro-4-hydroxy-phenyl)-acetic acid [(3Z)-4,7-dimethyl-2-oxo-1,2-dihydro-indol-3-ylidene]-hydrazide [II-48] | 20
CC(C(=O)N/N=C1\C(=O)Nc2ccc(C#CCN(C)C)cc21)c1ccc(F)cc1 (stereo not shown) [Example I-51, 2-(4-Fluoro-phenyl)-propionic acid [(3Z)-5-(3-dimethylamino-prop-1-ynyl)-2-oxo-1,2-dihydro-indol-3-ylidene]-hydrazide] | 5100
Cn1cc(CC(=O)N/N=C2\C(=O)Nc3ccc(C(=O)N4CCC(NC5CC5)CC4)c(Cl)c32)ccc1=O [Example I-35, (1-Methyl-6-oxo-1,6-dihydro-pyridin-3-yl)-acetic acid [(3Z)-4-chloro-5-(4-cyclopropylamino-piperidine-1-carbonyl)-2-oxo-1,2-dihydro-indol-3-ylidene]-hydrazide] | 1230
O=C(Cc1cccc(O)c1)N/N=C1\C(=O)Nc2ccccc21 [II-30, (3-Hydroxy-phenyl)-acetic acid [(3Z)-2-oxo-1,2-dihydro-indol-3-ylidene]-hydrazide] | 1450

More lines, now with the values ahead:

IC50 [nM] | Molecule
980 | Cc1cc(CCN2CCCC2)c(C)c2c1NC(=O)/C2=N\NC(=O)C(C)c1ccc(F)cc1 (stereo not shown) [Example I-62, 2-(4-Fluoro-phenyl)-propionic acid [(3Z)-4,7-dimethyl-2-oxo-5-(2-pyrrolidin-1-yl-ethyl)-1,2-dihydro-indol-3-ylidene]-hydrazide]
89 | COc1ccc2c(c1)/C(=N/NC(=O)Cc1ccc(O)cc1)C(=O)N2 [II-98, (4-Hydroxy-phenyl)-acetic acid [(3Z)-5-methoxy-2-oxo-1,2-dihydro-indol-3-ylidene]-hydrazide]
16 | Cc1c(Br)ccc2c1/C(=N/NC(=O)Cc1ccc(O)cc1)C(=O)N2 [II-35, (4-Hydroxy-phenyl)-acetic acid [(3Z)-5-bromo-4-methyl-2-oxo-1,2-dihydro-indol-3-ylidene)-hydrazide]
43 | COC(=O)c1ccc2c(c1)/C(=N/NC(=O)Cc1ccc(O)cc1)C(=O)N2 [Example I-11, (3Z)-3-{[2-(4-Hydroxy-phenyl)-acetyl]-hydrazono}-(3Z)-2-oxo-2,3-dihydro-1H-indole-5-carboxylic acid methyl ester]
30 | CC(C(=O)N/N=C1\C(=O)Nc2ccccc21)c1ccc(O)cc1 (stereo not shown) [II-18, 2-(4-Hydroxy-phenyl)-propionic acid [(3Z)-2-oxo-1,2-dihydro-indol-3-ylidene]-hydrazide]
< 9.1 | Cc1ccc(C)c2c1NC(=O)/C2=N\NC(=O)Cc1ccc(O)c(F)c1 [II-49, (3-Fluoro-4-hydroxy-phenyl)-acetic acid [(3Z)-4,7-dimethyl-2-oxo-1,2-dihydro-indol-3-ylidene]-hydrazide]
22 | CC(C(=O)N/N=C1\C(=O)Nc2ccc(Cl)c(Cl)c21)c1ccc(O)cc1 (stereo not shown) [II-44]
24 | O=C(Cc1ccc(O)cc1)N/N=C1\C(=O)Nc2ccc(C(=O)N3CCC(NC4CC4)CC3)c(Cl)c21 [Example I-28, (4-Hydroxy-phenyl)-acetic acid [(3Z)-4-chloro-5-(4-cyclopropylamino-piperidine-1-carbonyl)-2-oxo-1,2-dihydro-indol-3-ylidene]-hydrazide]
46 | O=C(CCc1ccc(O)cc1)N/N=C1\C(=O)Nc2c(Cl)ccc(Cl)c21 [II-76, 3-(4-Hydroxy-phenyl)-propionic acid [(3Z)-4,7-dichloro-2-oxo-1,2-dihydro-indol-3-ylidene]-hydrazide]
150 | O=C(Cc1ccc2c(c1)OCO2)N/N=C1\C(=O)Nc2ccccc21 [Example I-23, Benzo[1,3]dioxol-5-yl-acetic acid [(3Z)-2-oxo-1,2-dihydro-indol-3-ylidene]-hydrazide]
< 9.1 | Cc1cc(Cl)cc2c1NC(=O)/C2=N\NC(=O)Cc1ccc(O)cc1 [II-63, (4-Hydroxy-phenyl)-acetic acid [(3Z)-5-chloro-7-methyl-2-oxo-1,2-dihydro-indol-3-ylidene]hydrazide]
13 | O=C(Cc1ccc(O)cc1)N/N=C1\C(=O)Nc2c(Cl)ccc(Cl)c21 [II-38, (4-Hydroxy-phenyl)-acetic acid [(3Z)-4,7-dichloro-2-oxo-1,2-dihydro-indol-3-ylidene]-hydrazide]
59 | Cc1ccc(C)c2c1NC(=O)/C2=N\NC(=O)CCc1ccc(O)cc1 [II-81, 3-(4-Hydroxy-phenyl)-propionic acid [(3Z)-4,7-dimethyl-2-oxo-1,2-dihydro-indol-3-ylidene]-hydrazide]
15 | CC(C(=O)N/N=C1\C(=O)Nc2c(Cl)ccc(Cl)c21)c1ccc(O)cc1 (stereo not shown) [II-77, 2-(4-Hydroxy-phenyl)-propionic acid [(3Z)-4,7-dichloro-2-oxo-1,2-dihydro-indol-3-ylidene]-hydrazide]
430 | O=C(Cc1ccc(F)cc1)N/N=C1\C(=O)Nc2ccc(C(=O)N3CCC(NC4CC4)CC3)c(Cl)c21 [Example I-20, (4-Fluoro-phenyl)-acetic acid [(3Z)-4-chloro-5-(4-cyclopropylamino-piperidine-1-carbonyl)-2-oxo-1,2-dihydro-indol-3-ylidene]-hydrazide]
130 | CC(C(=O)N/N=C1\C(=O)Nc2ccc(C(=O)N3CCC(NC4CC4)CC3)c(Cl)c21)c1ccc(F)cc1 (stereo not shown) [Example I-30, 2-(4-Fluoro-phenyl)-propionic acid [(3Z)-4-chloro-5-(4-cyclopropylamino-piperidine-1-carbonyl)-2-oxo-1,2-dihydro-indol-3-ylidene]-hydrazide]
21 | O=C(Cc1ccc(O)nc1)N/N=C1\C(=O)Nc2c(Cl)ccc(Cl)c21 [II-56, (6-Hydroxy-pyridin-3-yl)-acetic acid [(3Z)-4,7-dichloro-2-oxo-1,2-dihydro-indol-3-ylidene]-hydrazide]
54 | O=C(Cc1ccc(O)c(F)c1)N/N=C1\C(=O)Nc2ccccc21 [II-43, (3-Fluoro-4-hydroxy-phenyl)-acetic acid [(3Z)-2-oxo-1,2-dihydro-indol-3-ylidene]-hydrazide]
45 | Cn1cc(CC(=O)N/N=C2\C(=O)Nc3c(Cl)ccc(Cl)c32)ccc1=O [II-59, (1-Methyl-6-oxo-1,6-dihydro-pyridin-3-yl)-acetic acid [(3Z)-4,7-dichloro-2-oxo-1,2-dihydro-indol-3-ylidene]-hydrazide]
190 | O=C(Cc1ccc(O)c(Br)c1)N/N=C1\C(=O)Nc2c(Cl)ccc(Cl)c21 [II-102, (3-Bromo-4-hydroxy-phenyl)-acetic acid [(3Z)-4,7-dichloro-2-oxo-1,2-dihydro-indol-3-ylidene]-hydrazide]
